Where “and” joins values, the source holds several entries; their conditions need not be identical. Equal entries are not always repeated.
Target: Indoleamine 2,3-dioxygenase 1 (Homo sapiens, UniProt P14902)
Test: Inhibitory Activity Assay: 1. […] Reagent Preparation100 mM PBS:100 mM disodium hydrogen phosphate and 100 mM potassium dihydrogen phosphate mixed in a ratio of 3:5, pH 6.5IDO1 assay buffer:100 mM PBS containing 400 μM L-tryptophan, 20 mM ascorbate, 20 μM methylene blue and 1000 U/ml catalase, pH 6.530% trichloroacetic acidddH2 O solution of 30% trichloroacetic acidEhrlich reagent1% (w/v) diluted solution of 4-(dimethylamino) benzaldehyde compoundAll compounds were dissolved with DMSO. During the assay, each compound was diluted to a concentration as needed. The compound of each concentration was added to multi-wells, and the final concentration of DMSO was controlled at 1%.3. Test Methoda.) the reaction mixture was prepared by adding 50 nM IDO1 and the desired concentration of the test compound to 100 μL of IDO1 assay buffer. IDO1 and assay buffer need to be preheated to 37° C.b.) The mixture was reacted in a constant temperature water tank at 37° C. for 30 minutes.c.) 50 μL of 30% trichloroacetic acid was added.d.) The above mixture was reacted in a constant temperature water tank at 52° C. for 30 minutes.e.) The reaction mixture was centrifuged at 12000 g for 10 minutes at room temperature.f.) 100 μL of the obtained supernatant and 100 μL of Ehrlich reagent were mixed.g.) the absorbance at 480 nm was measured using an M5 microplate reader.4. Data AnalysisInhibition rate=(ODpostive−ODsample)/(ODpositive−ODnegative)*100%5. Results and Discussion

Indoleamine 2,3-dioxygenase 1, sequence (P14902 whole entry): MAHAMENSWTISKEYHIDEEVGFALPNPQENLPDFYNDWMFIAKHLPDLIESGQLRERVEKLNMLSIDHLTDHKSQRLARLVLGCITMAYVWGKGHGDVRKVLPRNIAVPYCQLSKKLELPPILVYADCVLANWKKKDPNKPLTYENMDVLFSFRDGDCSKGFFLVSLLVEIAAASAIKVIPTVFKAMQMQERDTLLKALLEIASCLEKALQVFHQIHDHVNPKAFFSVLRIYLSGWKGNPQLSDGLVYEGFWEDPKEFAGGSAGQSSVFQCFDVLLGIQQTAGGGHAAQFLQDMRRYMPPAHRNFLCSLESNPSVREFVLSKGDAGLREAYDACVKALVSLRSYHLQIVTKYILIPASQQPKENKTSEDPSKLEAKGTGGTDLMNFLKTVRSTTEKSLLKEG

SMILES	IC50
O=C(Nc1ccccc1)ONc1nonc1/C(=N/O)Nc1ccc(F)c(Br)c1	48 nM
O/N=C(\Nc1ccc(F)c(Br)c1)c1nonc1NOCCN1CCCC1	108 nM
O/N=C(\Nc1ccc(F)c(Br)c1)c1nonc1NO	125 nM
O=C(NCCOCCONc1nonc1/C(=N/O)Nc1ccc(F)c(Br)c1)Nc1cc(F)cc(F)c1	72 nM
O=C1CCC(=O)N1CCONc1nonc1/C(=N/O)Nc1ccc(F)c(Br)c1	96 nM
CC(=O)ONc1nonc1/C(=N/O)Nc1ccc(F)c(Br)c1	92 nM
NC1CCC(ONc2nonc2/C(=N/O)Nc2ccc(F)c(Br)c2)CC1 (stereo not drawn)	184 nM
NCCONc1nonc1/C(=N/O)Nc1ccc(F)c(Br)c1	35 nM and 43 nM
CC(C)OC(=O)NCCONc1nonc1/C(=N/O)Nc1ccc(F)c(Br)c1	36 nM and 28 nM
CSNc1nonc1/C(=N/O)Nc1ccc(F)c(Cl)c1	53 nM
CC(=O)NCCONc1nonc1/C(=N/O)Nc1ccc(F)c(Br)c1	162 nM
O=C(NCCONc1nonc1/C(=N/O)Nc1ccc(F)c(Br)c1)NC1CCCC1	69 nM
O/N=C(\Nc1ccc(F)c(Br)c1)c1nonc1NOCCOc1ccccc1	120 nM
NS(=O)(=O)N1CCC(ONc2nonc2/C(=N/O)Nc2ccc(F)c(Br)c2)CC1	65 nM
O/N=C(\Nc1ccc(F)c(Br)c1)c1nonc1NOCCN1CCOCC1	43 nM and 38 nM
O=C(NCCONc1nonc1/C(=N/O)Nc1ccc(F)c(Br)c1)Nc1cc(F)cc(F)c1	12 nM
NC(=O)C(N)CCONc1nonc1/C(=N/O)Nc1ccc(F)c(Br)c1 (stereo not drawn)	85 nM
O/N=C(\Nc1ccc(F)c(Cl)c1)c1nonc1NS	104 nM
O/N=C(\Nc1ccc(F)c(Br)c1)c1nonc1NOC1CCCNC1 (stereo not drawn)	80 nM
CCCCONc1nonc1/C(=N/O)Nc1ccc(F)c(Br)c1	80 nM
NS(=O)(=O)NCC1(CONc2nonc2/C(=N/O)Nc2ccc(F)c(Br)c2)CC1	82 nM
O=C1C=CC(=O)N1CCONc1nonc1/C(=N/O)Nc1ccc(F)c(Cl)c1	32 nM and 58 nM
O=C(ONc1nonc1/C(=N/O)Nc1ccc(F)c(Br)c1)c1ccccc1	65 nM
